Measured values published in patent US7521536B2, “Glutamate transporter associated protein” (The Johns Hopkins University School of Medicine, priority 1999, dated 2009).

What was measured:
GTRAP3-18 [1] = assay: intraventricular GTRAP3-18 antisense oligomers, cortical glutamate uptake; type: in vivo
Experimental: To examine modulation of EAAC1 by GTRAP3-18 in vivo, GTRAP3-18 antisense oligomers were administered intraventricularly. Sequences for the novel phosphodiester oligonucleotides used were: sense GTRAP3-18: 5′-GTGAACCTTGCCCGCTC-3′, antisense GTRAP3-18: 5′-GAGCGGGGCAAGGTTCAC-3′ Oligonucleotides (5 μg/μL), separately or in combination were administered intraventricularly over 3-11 days, by mini-osmotic pumps (Alza Corp., Palo Alto, Calif.) as described previously (Rothstein et al., (1994)).

GTRAP3-18 [2] = assay: GTRAP3-18 antisense oligomers transfected into HEK293 cells; type: cell-based
Source text: Western blot analyses and glutamate uptake assays reveal endogenous expression of EAAC1 and GTRAP3-18 protein in HEK cells, but no expression of other transporter subtypes, e.g., GLAST, GLT-1, or EAAT4. Antisense oligomers, targeted to the 5′-GTRAP3-18 transcript, were transfected into HEK293 cells.

GTRAP3-18 [3] = assay: intraventricular infusion of retinoic acid, cortical GTRAP3-18 and glutamate uptake; type: in vivo
Experimental: To test this hypothesis in vivo, retinoic acid was infused intraventricularly (1-20 μM; 0-20 pmol/μL). […] This effect is specifically due to decreased EAAC1 -mediated transport because it was not altered by the glutamate transport inhibitor dihydrokainic acid, at a concentration that predominantly effects GLT-1 (Robinson et al. (1998)). […] Retinoic acid had no effect on glutamate transport by cells expressing GLT-1 or EAAT4.

EAAT4 [4] = assay: cerebellar glutamate uptake after intra-cisternal injection of HSV amplicon vectors; type: in vivo, rat; conditions: inhibitor of GLT-1 mediated glutamate transport
EAAT4 [5] = assay: Na+-dependent glutamate uptake in EAAT4 expressing HEK cells transfected with PCTAIRE; type: cell-based
Experimental: Transfection of EAAT4 expressing HEK cells with PCTAIRE results in diminished Na^+-dependent glutamate uptake. HEK cells and EAAT4 expressing HEK cells were transfected with 1.0 μg of pCMV PCTAIRE plasmid, and allowed to express for 48 hours. Cell monolayers were then washed with tissue buffer (50 mM Tris, 320 mM sucrose, pH 7.4). The cells were then incubated for 4 min at 37° C. with 1 mL of either sodium-(120 mM NaCl, 25 mM NaHCO3, 5 mM KCl, 2 mM CaCl2, 1 mM KH2PO4, 1 mM MgSO4, 10% glucose and 10 μM glutamate or choline-(120 mM choline-Cl, 25 mM Tris-HCl, 5 mM KCl, 2 mM CaCl2, 1 mM KH2PO4, 1 mM MgSO4, 10% glucose and 10 μM glutamate) containing buffer. Glutamate uptake assays were then performed using L-[^3H]-Glutamate in the presence and absence of Na^+. After rinsing, cells were lysed in 0.1 N NaOH and lysate radioactivity measured using a scintillation counter. Protein content was measured and glutamate uptake calculated as the difference between Na^+ containing and sodium free values per mg of protein.
Inhibition of Na^+-dependent glutamate uptake by PCTAIRE is reversible using the cdk2 inhibitor olomucine. HEK cells expressing EAAT4 were transfected with 1.0 μg of pCMV PCTAIRE plasmid as described above, and allowed to express for 48 hours. Prior to glutamate uptake assay, cells were treated with 100 μM olomucine for 30 minutes at 37° C. as indicated. […]

[6] = eleven days of intraventricular treatment
[7] = antisense 50-100 ng/day intraventricular for 7-10 days, retinoic acid 2.5 μM

## 5′-GAGCGGGGCAAGGTTCAC-3′ (DNA, all phosphodiester, methylation of C not given here) [antisense GTRAP3-18, phosphodiester oligonucleotide antisense to the 5′-GTRAP3-18 transcript]
GTRAP3-18 [1]; antisense-treated animals, control 1.08
  Vmax of DHK-insensitive cortical glutamate uptake: 1.08 nmol/min/mg protein
GTRAP3-18 [1]; antisense-treated animals, control Km=19.7 μM, read-out: Km of DHK-insensitive cortical glutamate uptake
  Km: 10 µM
GTRAP3-18 [1]; [6]
  GTRAP3-18 protein level: reduction
  cortical glutamate uptake: significant increase
GTRAP3-18 [2]
  EAAC1 protein level: not affected
  endogenous GTRAP3-18 protein level: reduced
  glutamate transport activity: elevated
GTRAP3-18 [3]; [7]
  inhibition of glutamate transport seen with retinoic acid treatment: blocks
  retinoic acid induction of GTRAP3-18: blocks

## 5′-GTGAACCTTGCCCGCTC-3′ (chemistry not fully specified) [sense GTRAP3-18, sense control phosphodiester oligonucleotide, reference compound]
GTRAP3-18 [1]; [6]
  cortical glutamate uptake: not altered

## CC(C)[C@H]1CN[C@H](C(=O)O)[C@H]1CC(=O)O [Dihydrokainic acid, reference compound]
EAAT4 [4]
  effect on cerebellar glutamate uptake: no effect
GTRAP3-18 [1]; in vivo
  effect of inhibitor on the antisense-induced increase in cortical glutamate uptake: not altered
GTRAP3-18 [3]; concentration that predominantly effects GLT-1
  effect of inhibitor on the retinoic acid-induced decrease of glutamate uptake: not altered

## Cn1cnc2c(NCc3ccccc3)nc(NCCO)nc21 [olomucine, reference compound]
EAAT4 [5]; 100 μM for 30 minutes at 37° C. before uptake assay
  inhibition of Na+-dependent glutamate uptake by PCTAIRE: reversible

## PCTAIRE: serine/threonine kinase related to the cyclin-dependent kinase 2 (cdk2) family, interacts with amino terminus of EAAT4
EAAT4 [5]; 1.0 μg pCMV PCTAIRE plasmid, 48 hours
  Na+-dependent glutamate uptake: diminished
